# Assay results published in patent US20190070266A1 (Novo Nordisk A/S, priority 2016, published 2019).
# Tested on: adult human subjects with type 2 diabetes at high risk for cardiovascular events
# Assay: Same trial: adverse events by preferred term with frequency of at least 0.1%
# Format: in vivo
# Details: full analysis set
# Procedure: A long-term, multi-centre, international, randomised double-blind, placebo-controlled trial with 9340 human subjects was carried out with treatment for at least 3.5 years and up to 5 years per subject; and this trial concerned the incidence of cardiovascular events in adult human subjects with type 2 diabetes that were at high risk for cardiovascular events, including such subjects with existing cardiovascular disease. […] All trial endpoints were collected and assessed throughout the entire duration of the trial. Subject inclusion and exclusion criteria were as described in Table 2. The subject's characteristics, cardiovascular risk profile, renal function, cardiovascular medication, and antidiabetic treatment regimens of the randomised subjects at baseline were as shown in Tables 3a-e. Overall trial duration was planned as 18 months of recruitment period followed by 42 months of treatment from last subject randomised. […] After randomisation, treatment with liraglutide or placebo was double-blind throughout the trial. […] The term “placebo” as used herein refers to a formulation identical to the liraglutide formulation except not comprising liraglutide and the placebo was administered in the volume used in the equivalent liraglutide dosage. […] The dosage could be reduced at any time in the trial if required by the subject's tolerance to the trial product. […] The subcutaneous injection was made either in the abdomen, thigh or upper arm.
# The term “baseline” herein (e.g. used as part of “baseline characteristics” or “baseline cardiovascular risk profile”) may refer to the level of a certain parameter (e.g. level of HbA1c) by the determination made in connection with the medical visit at the time of randomisation of the subject.
# The results of this trial may be presented herein as a number or fraction of subjects experiencing an event. Alternatively, the results of this trial may be presented with hazard ratios estimated in a Cox proportional hazard model, which is the standard statistical model used for estimating time to an event. […] A 5% significance level is the standard level for investigating significance in clinical trials.
# [1] = Preferred term: Diabetic foot infection
smiles,measurement,setting,value
"CCCCCCCCCCCCCCCC(=O)N[C@@H](CCC(=O)NCCCC[C@H](NC(=O)[C@H](C)NC(=O)[C@H](C)NC(=O)[C@H](CCC(N)=O)NC(=O)CNC(=O)[C@H](CCC(=O)O)NC(=O)[C@H](CC(C)C)NC(=O)[C@H](Cc1ccc(O)cc1)NC(=O)[C@H](CO)NC(=O)[C@H](CO)NC(=O)[C@@H](NC(=O)[C@H](CC(=O)O)NC(=O)[C@H](CO)NC(=O)[C@@H](NC(=O)[C@H](Cc1ccccc1)NC(=O)[C@@H](NC(=O)CNC(=O)[C@H](CCC(=O)O)NC(=O)[C@H](C)NC(=O)[C@@H](N)Cc1cnc[nH]1)[C@@H](C)O)[C@@H](C)O)C(C)C)C(=O)N[C@@H](CCC(=O)O)C(=O)N[C@@H](Cc1ccccc1)C(=O)N[C@H](C(=O)N[C@@H](C)C(=O)N[C@@H](Cc1c[nH]c2ccccc12)C(=O)N[C@@H](CC(C)C)C(=O)N[C@H](C(=O)N[C@@H](CCCNC(=N)N)C(=O)NCC(=O)N[C@@H](CCCNC(=N)N)C(=O)NCC(=O)O)C(C)C)[C@@H](C)CC)C(=O)O [Liraglutide, Arg34,Lys26-(N-epsilon-(gamma-L-glutamyl(N-alfa-hexadecanoyl)))-GLP-1(7-37)]","Adverse events by preferred term, % (proportion of subjects experiencing at least one event)",[1],0.3%
same,"Adverse events by preferred term, R (rate, events per 100 PYO)",[1],<0.1 events per 100 PYO
same,"Adverse events by preferred term, % (proportion of subjects experiencing at least one event)",Preferred term: Diabetic foot,2.8%
same,"Adverse events by preferred term, R (rate, events per 100 PYO)",Preferred term: Diabetic foot,1.0 events per 100 PYO
same,"Adverse events by preferred term, % (proportion of subjects experiencing at least one event)",Preferred term: Gangrene,0.2%
same,"Adverse events by preferred term, R (rate, events per 100 PYO)",Preferred term: Gangrene,<0.1 events per 100 PYO
same,"Adverse events by preferred term, % (proportion of subjects experiencing at least one event)",Preferred term: Skin ulcer,0.6%
same,"Adverse events by preferred term, R (rate, events per 100 PYO)",Preferred term: Skin ulcer,0.2 events per 100 PYO
